# From article PMC9931771, “Surufatinib plus toripalimab in patients with advanced solid tumors: a single-arm, open-label, phase 1 trial” (Journal of Cancer Research and Clinical Oncology, 2022)
# Where two headings read alike, the source gives them in different places.
# How the values were obtained:
# [1] = Phase 1 trial: pharmacokinetics of surufatinib and toripalimab (non-compartmental analysis); format: in vivo, human; conditions: for Surufatinib accumulation ratio of AUC0-τ: Cycle 2 Day 1 compared to Cycle 1 Day 1; for AUC / Cmax / Tmax / Vd/F / half-life: human, in vivo, oral; for AUC: read-out: Surufatinib AUC0-τ, geometric mean (CV%); for Cmax: read-out: Surufatinib Cmax, geometric mean (CV%); for Tmax: read-out: Surufatinib Tmax, median; for Vd/F: read-out: Surufatinib Vd/F, geometric mean (CV%); for half-life: read-out: Surufatinib t1/2, median (converted)
# Text: Blood samples were collected for PK evaluation at multiple time points on Cycle 1 Day 1, Cycle 2 Day 1, and Cycle 3 Day 1 for surufatinib and toripalimab, respectively.
# DLT events were based on the DLT evaluable population, including patients who received at least 1 cycle of treatment and completed all safety assessments within the DLT assessment window or discontinued early due to DLT in the dose-escalation stage. All safety analyses, progression-free survival (PFS), and overall survival (OS) statistics were based on the safety population, including patients who received at least 1 dose of any study drug. All efficacy endpoints, excluding PFS and OS, were analyzed based on the efficacy evaluable population, including all patients who received at least 1 dose of any study drug and had tumor assessment at baseline and post drug administration prior to initiation of new anti-cancer therapies. The PK analysis was based on the PK population, which included all patients who received at least one dose of the study drug, had at least one PK sample collected and analyzed, and had no protocol deviation that might affect the PK data.
# Two-sided 95% confidence interval (CI) of ORR and DCR were computed using the Exact (Clopper–Pearson) method. For time-to-event variables [PFS, OS, DoR (duration of response) and TTR (time to response)], median event time as well as the corresponding 95% CI were estimated using Kaplan–Meier method. All statistical analyses were performed using SAS 9.4 software. Adverse events (AEs) were graded by NCI CTCAE (Common Terminology Criteria for Adverse Events) v4.03, and coded using the Medical Dictionary for Regulatory Activities (MedDRA) v23.1. Treatment-related AEs (TRAEs) referred to AEs related to surufatinib or toripalimab, which were judged by the investigators. PK parameters were calculated by non-compartmental analysis using Phoenix WinNonlin v8.0.
# [2] = system: advanced well-differentiated pancreatic NET; design: method as in Xu et al. [2020a], [b]; conditions: phase 3 trial, ref Xu et al. [2020a], [b]; cited from earlier work
# [3] = system: tumor-associated macrophages (TAMs); design: method as in Zhou et al. [2017]; conditions: preclinical studies; ref Zhou et al. [2017]; cited from earlier work
# [4] = system: advanced well-differentiated extrapancreatic NET; design: method as in Xu et al. [2020a], [b]; conditions: phase 3 trial, ref Xu et al. [2020a], [b]; cited from earlier work
# [5] = surufatinib 200 mg + toripalimab 240 mg, C1D1, N 6
# [6] = surufatinib 200 mg + toripalimab 240 mg, C1D1, footnote 1 (N 4)
# [7] = surufatinib 200 mg + toripalimab 240 mg, C2D1, N 6
# [8] = surufatinib 200 mg + toripalimab 240 mg, C3D1, N 3
# [9] = surufatinib 200 mg + toripalimab 240 mg, C3D1, footnote 3 (N 2)
# [10] = surufatinib 250 mg + toripalimab 240 mg, C1D1, N 12
# [11] = surufatinib 250 mg + toripalimab 240 mg, C2D1, N 11
# [12] = surufatinib 250 mg + toripalimab 240 mg, C3D1, N 9
# [13] = surufatinib 250 mg + toripalimab 240 mg, C3D1, footnote 3 (N 8)
# [14] = surufatinib 300 mg + toripalimab 240 mg, C1D1, N 12
# [15] = surufatinib 300 mg + toripalimab 240 mg, C1D1, footnote 1 (N 10)
# [16] = surufatinib 300 mg + toripalimab 240 mg, C2D1, N 10
# [17] = surufatinib 300 mg + toripalimab 240 mg, C3D1, N 10
smiles,measurement,setting,value
Cc1cc2cc(Oc3ccnc(Nc4cccc(CS(=O)(=O)NCCN(C)C)c4)n3)ccc2[nH]1 [surufatinib],Surufatinib accumulation ratio of AUC0-τ,[1]; 200 mg QD,1.8
same,Surufatinib accumulation ratio of AUC0-τ,[1]; 250 mg QD,2.0
same,Surufatinib accumulation ratio of AUC0-τ,[1]; 300 mg QD,2.1
same,AUC,"[1]; surufatinib 200 mg + toripalimab 240 mg, C1D1, N 4",1840 ng·h/mL
same,Cmax,[1]; [5],277 ng/mL
same,Tmax,[1]; [5],1.98 h
same,Vd/F,[1]; [6],926 L
same,half-life,[1]; [6],269 min
same,AUC,"[1]; surufatinib 200 mg + toripalimab 240 mg, C2D1, N 3",3010 ng·h/mL
same,Cmax,[1]; [7],268 ng/mL
same,Tmax,[1]; [7],2.97 h
same,half-life,"[1]; surufatinib 200 mg + toripalimab 240 mg, C2D1, footnote 4 (N 3)",786 min
same,AUC,"[1]; surufatinib 200 mg + toripalimab 240 mg, C3D1, N 2",2300 ng·h/mL
same,Cmax,[1]; [8],239 ng/mL
same,Tmax,[1]; [8],1.98 h
same,Vd/F,[1]; [9],1080 L
same,half-life,[1]; [9],606 min
same,AUC,[1]; [10],1840 ng·h/mL
same,Cmax,[1]; [10],289 ng/mL
same,Tmax,[1]; [10],1.6 h
same,Vd/F,[1]; [10],1660 L
same,half-life,[1]; [10],666 min
same,AUC,[1]; [11],3610 ng·h/mL
same,Cmax,[1]; [11],407 ng/mL
same,Tmax,[1]; [11],2 h
same,half-life,[1]; [11],714 min
same,AUC,"[1]; surufatinib 250 mg + toripalimab 240 mg, C3D1, N 8",2400 ng·h/mL
same,Cmax,[1]; [12],310 ng/mL
same,Tmax,[1]; [12],1.93 h
same,Vd/F,[1]; [13],2540 L
same,half-life,[1]; [13],936 min
same,AUC,"[1]; surufatinib 300 mg + toripalimab 240 mg, C1D1, N 10",1880 ng·h/mL
same,Cmax,[1]; [14],228 ng/mL
same,Tmax,[1]; [14],2 h
same,Vd/F,[1]; [15],1620 L
same,half-life,[1]; [15],487 min
same,AUC,"[1]; surufatinib 300 mg + toripalimab 240 mg, C2D1, N 9",3670 ng·h/mL
same,Cmax,[1]; [16],281 ng/mL
same,Tmax,[1]; [16],2.97 h
same,half-life,"[1]; surufatinib 300 mg + toripalimab 240 mg, C2D1, footnote 4 (N 8)",864 min
same,AUC,[1]; [17],3500 ng·h/mL
same,Cmax,[1]; [17],361 ng/mL
same,Tmax,[1]; [17],2 h
same,Vd/F,[1]; [17],1510 L
same,half-life,[1]; [17],732 min
same,"Surufatinib CL/F, geometric mean (CV%)",[1]; [6],89.5 (23.9) ^1 L/h
same,"Surufatinib CL/F, geometric mean (CV%)",[1]; [9],87.0 (24.3) ^3 L/h
same,"Surufatinib CL/F, geometric mean (CV%)",[1]; [10],110 (34.6) L/h
same,"Surufatinib CL/F, geometric mean (CV%)",[1]; [13],104 (45.0)^3 L/h
same,"Surufatinib CL/F, geometric mean (CV%)",[1]; [15],134 (30.7) ^1 L/h
same,"Surufatinib CL/F, geometric mean (CV%)",[1]; [17],84.3 (34.9) L/h
same,DCR,[2],80.8%
same,ORR,[2],19.2%
same,Effect on M1 TAMs,[3],increased
same,Effect on M2 tumor-associated macrophages (TAMs),[3],decreased
same,DCR,[4],86.5%
same,ORR,[4],10.3%
